In patent US20200061092A1, “METHODS AND COMPOSITIONS FOR TREATING DISORDERS ASSOCIATED WITH MUSCLE WEAKNESS” (priority 2018, published 2020):

Tests used:
Assay type in all cases: in vivo, mouse
[1] = system: FKRP P448L mutant mice; test: Ribitol toxicity evaluation: body weight, histology of liver, kidney and spleen, serum biochemical markers
Method: All animal studies were approved by the Institutional Animal Care and Use Committee (IACUC) of Carolinas Medical Center. All mice were housed in the vivarium of Carolinas Medical Center following animal care guidelines of the institute. Animals were ear tagged prior to group assignment. Food and water were available ad libitum during all phase of the study. Body weight was measured from 6 weeks to 19 weeks of age.
Ribitol was purchased from Sigma (A5502 Adonitol, ≥98%, Sigma, St. Louis) and dissolved in drinking water to the final concentration of 5% or 10%. P448L mice aged at 4 weeks were treated with 5% ribitol drinking water for 1 month and P448L mice aged at 7 weeks were treated with 5% ribitol drinking water for 3 months and 6 months. All the mice were randomly assigned to either treatment or control groups. And a minimum number of 4 mice were used for each group. No animal was excluded. P448L female breeders were given 10% ribitol in drinking water during pregnancy, and pups continued to be treated with 10% ribitol in drinking water until they were euthanized at 19 weeks of age. Untreated age-matched P448L and wild-type C57BL/6 mice were used as controls. The animals were terminated at the end of each treatment time point and tissues including heart, diaphragm, TA, quadriceps, liver, spleen and kidney were collected for analyses.
Frozen tissues were processed for hematoxylin and eosin (H&E) and Masson's Trichrome staining following standard procedures. Muscle cross-sectional fiber equivalent diameter was determined from tibialis anterior and quadriceps stained with H&E using MetaMorph v7.7 Software (Molecular Devices). Percentage of centrally nucleated myofibers were manually quantified from the same tissue sections stained with H&E. Fibrotic area represented by blue staining in the Masson's Trichrome stained sections was quantified from heart, diaphragm, tibialis anterior and quadriceps using ImageJ software. For all the morphometric analyses, a total of 300 to 400 fibers from two representative 20× magnification images per each muscle per animal were used.

[2] = system: F-α-DG (functionally glycosylated α-DG); test: Immunohistochemical staining of F-α-DG with IIH6C4 antibody in muscles of ribitol-treated P448L mice
Method: Ribitol was purchased from Sigma (A5502 Adonitol, ≥98%, Sigma, St. Louis) and dissolved in drinking water to the final concentration of 5% or 10%. […] mice aged at 4 weeks were treated with 5% ribitol drinking water for 1 month and […] mice aged at 7 weeks were treated with 5% ribitol drinking water for 3 months and 6 months. All the mice were randomly assigned to either treatment or control groups. And a minimum number of 4 mice were used for each group. No animal was excluded. […] female breeders were given 10% ribitol in drinking water during pregnancy, and pups continued to be treated with 10% ribitol in drinking water until they were euthanized at 19 weeks of age. Untreated age-matched […] and wild-type C57BL/6 mice were used as controls. The animals were terminated at the end of each treatment time point and tissues including heart, diaphragm, TA, quadriceps, liver, spleen and kidney were collected for analyses. […] For immunohistochemical detection of functionally glycosylated α-DG, […] of thickness cross sections of untreated and C57 control, as well as tissues from treated cohorts were included in each slide. Slides were first fixed in ice cold Ethanol:Acetic acid (1:1) for 1 min, blocked with 10% normal goat serum (NGS) in […]-buffer saline (TBS) for 30 min at room temperature, and incubated overnight at 4° C. with primary mouse monoclonal antibody IIH6C4 (EMD Millipore) (1:500) against α-DG. Negative controls received 10% normal goat serum in 1×TBS only. Sections were washed and incubated with secondary AlexaFLuor 488 goat anti-mouse IgM (Invitrogen) (1:500) at room temperature for 2 hr. […] Immunofluorescence was visualized using an Olympus BX51/BX52 fluorescence microscope (Opelco) and images were captured using the Olympus DP70 digital camera system (Opelco). Slides were examined in a blinded manner by the investigator.

[3] = system: FKRP P448L mutant mice; test: Whole body plethysmography (respiratory function) in P448L mice
Method: Respiratory functional analysis in conscious, freely moving 18 and 31 weeks old mice were measured using a whole-body plethysmography technique. The plethysmograph apparatus (Emka Technologies, Falls Church, Va.) was connected to a ventilation pump for the purpose of maintaining a constant air flow, a differential pressure transducer, a usbAMP signal amplifier, and a computer running EMKA iox2 software with the respiratory flow analyzer module, which was used to detect pressure changes due to breathing and recording the transducer signal. An initial amount of 20 mL of air was injected and withdrawn via a 20 mL syringe into the chamber for the purpose of calibration. Mice were placed inside the “free moving” plethysmograph chamber and allowed to acclimate for 5 min in order to minimize any effects of stress related changes in ventilation. Resting ventilation was measured for a duration of 15 min after the acclimation period. Body temperatures of all mice were assumed to be 37° C. and to remain constant during the ventilation protocol.

[4] = 10% ribitol from pregnancy, 18 weeks of age

With `OC[C@@H](O)[C@@H](O)[C@@H](O)CO` [ribitol] the “Histology of liver, kidney and spleen (H&E)” value ([1]; 5% ribitol, 3 or 6 months) was “normal structure without degeneration and inflammation”, the “Serum markers of liver and kidney function (ALP, ALT, t-Bil, c-Bil, unc-Bil, BUN, Crea), treated vs untreated” value ([1]; 5% ribitol, 6 months) was “No statistical significance” and the “Serum triglycerides (TRG) and glucose (GLU), treated vs untreated” value ([1]; 5% ribitol, 6 months) was “similar”. For the same compound, the “Body weight vs age-matched untreated P448L” value ([1]; 10% ribitol from embryonic stage or 5% ribitol from 7 weeks of age, all time points) was “No significant difference”, the “Effect on pregnancy, embryo development, body weight and overall behavior” value ([1]; oral ribitol from pregnancy to adult) was “does not affect” and the “F-α-DG signal by IIH6C4 immunohistochemistry” value ([2]; 5% ribitol in drinking water, 1 month, 4-week-old P448L mice, heart, diaphragm, limb muscles) was “visibly increased F-α-DG”. The “F-α-DG levels by IIH6C4 immunofluorescence” value ([2]; 5% ribitol in drinking water, 3 and 6 months, from 7 weeks of age, all muscles) was “clear increase in the levels of F-α-DG”, the “Expression of F-α-DG by immunohistochemistry” value ([2]; 10% ribitol in drinking water from pregnancy to 19 weeks of age) was “detected in all skeletal muscles and in the cardiac muscle” and the “Tidal volume (TV), expiratory volume (EV), minute volume (MV) vs untreated” value ([3]; 5% ribitol, 3 and 6 months) was “trend of improvement”. For the same compound, the “Improvement in EV and MV” value ([3]; 5% ribitol, 6 months) was “statistically significant”, the “Peak inspiratory flow (PIF) and peak expiratory flow (PEF)” value ([3]; 5% ribitol, 6 months) was “Improvement was also observed” and the “Expired volume (EV), relaxation time (RT), enhanced pause (Penh)” value [3, 4] was “improvement”. For the same compound, the “Minute volume (MV) and end-expiratory pause (EEP) vs untreated” value [3, 4] was “reaching significant difference”.
